Assay type in all cases: functional
Common to all, as to details: time 3-6 day

For test [1], the system named is NCI-H520. Kind of test: Antiproliferative activity against human NCI-H520 cells assessed as inhibition of cell viability at 5 uM incubated for 3 to 6 days by CCK8 assay relative to control.
Test [2] deals with NCI-H520. Kind of test: Antiproliferative activity against human NCI-H520 cells assessed as inhibition of cell viability at 1 uM incubated for 3 to 6 days by CCK8 assay relative to control. In general terms: Tetrazolium assays rely on reduction of a dye to a coloured formazan, in cell work by metabolically active cells.
Test [3] has as its system NCI-H1703. Nature of the test: Antiproliferative activity against human NCI-H1703 cells assessed as inhibition of cell viability at 5 uM incubated for 3 to 6 days by CCK8 assay relative to control.
In test [4] the test system is NCI-H1703. Nature of the test: Antiproliferative activity against human NCI-H1703 cells assessed as inhibition of cell viability at 1 uM incubated for 3 to 6 days by CCK8 assay relative to control.
Test [5] has as its system HCC95. Nature of the test: Antiproliferative activity against human HCC95 cells assessed as inhibition of cell viability at 5 uM incubated for 3 to 6 days by CCK8 assay relative to control.
For test [6], the system named is HCC95. Kind of test: Antiproliferative activity against human HCC95 cells assessed as inhibition of cell viability at 1 uM incubated for 3 to 6 days by CCK8 assay relative to control.

Each structure is given as a SMILES string.

As to `O=C1C(Cl)=C(Nc2ccc(Oc3ccccc3)cc2)C(=O)c2ncccc21`, the inhibition (commonly the relative decrease from the control value, in per cent) at 5 µM in test [1] worked out at 91.5%; in test [3], 99.5%; in test [5], 64.1%. The inhibition at 1 µM in test [2] is 11.1%; in test [4], 14.3%; in test [6] it was 14.7%.

For `COc1cccc(CCNC2=C(Cl)C(=O)c3cccnc3C2=O)c1`, the inhibition at 5 µM is 56.2% in test [1], 97.1% in test [3] and 42.9% in test [5]. For the same compound, the inhibition at 1 µM in test [2] was determined as 40.4%; in test [4], 64.6%; in test [6] it was 33.5%.

For the compound `CC(C)(C)OC(=O)N1CC2(CC(NC3=C(Cl)C(=O)c4cccnc4C3=O)C2)C1`, the inhibition at 5 µM in test [1] is 78%; in test [3] it was 99.8%; in test [5], 18.2%. Further, the figures for the inhibition at 1 µM in test [2], in test [4] and in test [6] were 16%, 21.7% and 1.5%, respectively.

Regarding `CCN(CC)CCNC1=C(Cl)C(=O)c2cccnc2C1=O`, the results for the inhibition at 5 µM in test [1], in test [3] and in test [5] were 35.5%, 56.7% and 19.1%, respectively. Moreover, the inhibition at 1 µM was found to be 12.2% in test [2], 11.1% in test [4] and 9.6% in test [6].

Take `Cc1nn(CCN2CCOCC2)c(=O)c2ccccc12`: the inhibition at 5 µM was 1.1% in test [1], -8.6% in test [3] and 17.1% in test [5]. For the same compound, the results for the inhibition at 1 µM in test [2], in test [4] and in test [6] were 7.7%, -9.3% and 1.6%, respectively.

As to `O=C1C(Cl)=C(N2CCC3(CC2)OCCO3)C(=O)c2ncccc21`, the inhibition at 5 µM in test [1] was determined as 8.6%; in test [3] it was 6%; in test [5], 9.1%. For the same compound, the inhibition at 1 µM was determined as 6.5% in test [2], 3.1% in test [4] and 4.6% in test [6].

On to `CCn1cc(C(=O)NCCN2CCOCC2)c(=O)c2cc3c(cc21)OCO3`, for which the inhibition at 5 µM in test [1] amounted to 12.4%; in test [3] it was 21.2%; in test [5] it was 7.8%. Moreover, the inhibition at 1 µM in test [2] stood at 20.2%; in test [4], 21.5%; in test [6], 22.4%.

Turning to `O=C1C(Cl)=C(NC2CC3(CNC3)C2)C(=O)c2ncccc21`, the inhibition at 5 µM was 0.2% in test [1], 14.8% in test [3] and 18.5% in test [5]. Besides, the inhibition at 1 µM in test [2] is 2.79%; in test [4], 5.6%; in test [6], 9.5%.

For `O=C1C(Cl)=C(NCCc2ccncc2)C(=O)c2ncccc21`, the results for the inhibition at 5 µM in test [1], in test [3] and in test [5] were 95.5%, 100% and 34.5%, respectively. The inhibition at 1 µM in test [2] turned out to be 18%; in test [4], 9.5%; in test [6], 4.25%.

For `O=C1C(Nc2ccc(Oc3ccccc3)cc2)=C(Cl)C(=O)c2ncccc21`, the inhibition at 5 µM in test [1] was 87.8%; in test [3], 97.1%; in test [5], 43.1%. For the same compound, the inhibition at 1 µM in test [2] was 28.6%; in test [4] it was 20.5%; in test [6], 15%.

In the case of `O=C1C(NCCN2CCOCC2)=C(Cl)C(=O)c2ncccc21`, the figures for the inhibition at 5 µM in test [1], in test [3] and in test [5] were 71.2%, 99.8% and 57.4%, respectively. Besides, the inhibition at 1 µM in test [2] was found to be 25.9%; in test [4], 47.3%; in test [6], 4.8%.

As for `O=C1C(Cl)=C(N2CCN(C3CC3)CC2)C(=O)c2ncccc21`, the results for the inhibition at 5 µM in test [1], in test [3] and in test [5] were 5.6%, 30.2% and 10.9%, respectively. Further, the inhibition at 1 µM is 2.1% in test [2], 12% in test [4] and 7.6% in test [6].

For the compound `O=C1NCCc2cn(CCN3CCOCC3)c3cc(F)cc1c23`, the results for the inhibition at 5 µM in test [1], in test [3] and in test [5] were -0.4%, 10.1% and 7.5%, respectively. Moreover, the inhibition at 1 µM in test [2] was 0.5%; in test [4], 0.8%; in test [6], 0.1%.

Regarding `O=C1C(N2CCN(C3CC3)CC2)=C(Cl)C(=O)c2ncccc21`, the inhibition at 5 µM in test [1] was 54.8%; in test [3] it was 64.6%; in test [5], 41.5%. The inhibition at 1 µM in test [2] was found to be 20.8%; in test [4] it was 9%; in test [6], 8.4%.

Consider `O=C1C(N2CCC3(CC2)OCCO3)=C(Cl)C(=O)c2ncccc21`, for which the inhibition at 5 µM in test [1] is 73.2%; in test [3] it was 93.4%; in test [5] it was 62.7%. In addition, the inhibition at 1 µM in test [2] worked out at 44.6%; in test [4], 33.9%; in test [6] it was 4.7%.

`CC(C)(C)OC(=O)N1CC2(C1)CN(C1=C(Cl)C(=O)c3cccnc3C1=O)C2`: the inhibition at 5 µM in test [1] was 67.4%; in test [3], 99.1%; in test [5], 42.6%. Besides, the inhibition at 1 µM in test [2] was determined as 37.4%; in test [4], 10.1%; in test [6], 9.7%.

For `CCn1cc(C(=O)NCCN2CCOCC2)c(=O)c2ccc(C)nc21`, the inhibition at 5 µM in test [1] was 22.6%; in test [3], 34%; in test [5] it was 3.8%. The inhibition at 1 µM in test [2] amounted to 16.1%; in test [4] it was 19.1%; in test [6] it was 11.9%.

Consider `O=c1c2c(F)cccc2nnn1CCN1CCOCC1`, for which the results for the inhibition at 5 µM in test [1], in test [3] and in test [5] were 20.3%, 18.5% and 1.9%, respectively. Also, the figures for the inhibition at 1 µM in test [2], in test [4] and in test [6] were 8.6%, 2.7% and -4.7%, respectively.

Take `O=C1C(N2C[C@H]2Cc2ccccc2)=C(Cl)C(=O)c2ncccc21`: the inhibition at 5 µM in test [1] was 99.7%; in test [3] it was 100%; in test [5] it was 42.5%. Moreover, the inhibition at 1 µM was determined as 37.6% in test [2], 37.4% in test [4] and 33.8% in test [6].

`CCN(CC)CCNC1=C(Cl)C(=O)c2ncccc2C1=O`: the inhibition at 5 µM came out at 88.2% in test [1], 98.2% in test [3] and 42% in test [5]. For the same compound, the results for the inhibition at 1 µM in test [2], in test [4] and in test [6] were 7.5%, 18.1% and 18.7%, respectively.

On to `CC(C)(C)OC(=O)N1CC2(C1)CN(C1=C(Cl)C(=O)c3ncccc3C1=O)C2`, for which the inhibition at 5 µM was 63.1% in test [1], 96.5% in test [3] and 91.6% in test [5]. The values for the inhibition at 1 µM in test [2], in test [4] and in test [6] were 38.3%, 27.3% and 43.1%, respectively.

In the case of `O=C1C(Cl)=C(NCCC2CCOCC2)C(=O)c2ncccc21`, the inhibition at 5 µM in test [1] turned out to be 84.2%; in test [3], 100%; in test [5], 29.4%. The inhibition at 1 µM amounted to 8.7% in test [2], 5.1% in test [4] and 7.5% in test [6].

The values above are taken from ChEMBL document CHEMBL6109083, “Design, synthesis, and antitumor activity of NSDs inhibitors targeting lung squamous cell carcinoma” (Eur J Med Chem, 2025).
